Assay results as given in US7459552B2, “Method for producing cyclic diamine derivative or salt thereof” (Kowa Co., Ltd., priority 2003, dated 2008).

melting point [°C]	SMILES
103 to 104	CSc1cc(C)nc(SC)c1NC(=O)CN1CCN(CCSc2nc3cc(C(F)(F)F)ccc3o2)CC1 [Example 4, 2-[4-[2-(5-trifluoromethylbenzoxazol-2-ylthio)ethyl]piperazin-1-yl]-N-[2,4-bis(methylthio)-6-methylpyridin-3-yl]acetamide]
191 to 192	Cc1cc(OCC(F)(F)F)c(NC(=O)CN2CCN(CCSc3nc4cc(F)c(F)cc4[nH]3)CC2)c(OCC(F)(F)F)n1 [Example 5, 2-[4-[2-(5,6-difluorobenzimidazol-2-ylthio)ethyl]piperazin-1-yl]-N-[2,4-bis(2,2,2-trifluoroethoxy)-6-methylpyridin-3-yl]acetamide]
141 to 142	Cc1cc(OCC(F)(F)F)c(NC(=O)CN2CCN(CCSc3nc4ccccc4o3)CC2)c(OCC(F)(F)F)n1 [Example 7, 2-[4-[2-(benzoxazol-2-ylthio)ethyl]piperazin-1-yl]-N-[2,4-bis(2,2,2-trifluoroethoxy)-6-methylpyridin-3-yl]acetamide]
107 to 108	Cc1cc(C(F)(F)F)c(NC(=O)CN2CCN(CCSc3nc4ccccc4s3)CC2)c(C)n1 [Example 8, 2-[4-[2-(benzothiazol-2-ylthio)ethyl]piperazin-1-yl]-N-[2,6-dimethyl-4-trifluoromethyl-pyridin-3-yl]acetamide]
